# From paper PMC7144376, “Antiviral Effects of Novel 2-Benzoxyl-Phenylpyridine Derivatives” (Molecules, 2020)
# Tests used:
# Format in all cases: cell-based, Coxsackievirus B3
# CVB3 RNA = CVB3 RNA by quantitative reverse transcription-PCR; details: 160 μM, Hep-2 cells, 32 h pi, normalized to GAPDH
# Protocol: (§1) To further investigate the effects of these compounds on CVB3 replication, we analyzed the efficacy of representative compound, W13, in inhibiting viral progeny yield, RNA synthesis, and protein translation. Infected cells treated with or without 160 μM W-13 were harvested after 4 h, 8 h, 16 h and 32 h, viral progeny yields were determined using the Reed–Muench method, and quantitative reverse transcription polymerase chain reaction analysis of harvested cells were conducted, to evaluate the relative amounts of viral RNA. […] Figure 5b illustrates the efficacy of W-13 in inhibiting viral RNA synthesis. Viral RNA became detectable in the virus control group during the first 4 h pi, followed by significant increases at subsequent time points.
# Figure 5 Effect of W13 on CVB3 replication in Hep-2 cells. Hep-2 cells infected with 100 TCID50 CVB3 were incubated in the absence or presence of 160 µM W13 and harvested at the indicated times post-infection. (a) Progeny virus yields were determined. (b) Viral RNA levels were measured by analysis of total RNA. GAPDH was amplified and the resulting data was used for normalization. […] (c) CVB3 protein levels were determined by indirect immunofluorescence, using the mouse anti-coxsackie virus B3 monoclonal antibody, MAB948, and an alexa-fluor-488-conjugated affiniPure goat anti-mouse IgG (H + L), after incubation with W13 for 24 h. […]
# CVB3 = assay: Time course of CVB3 progeny yield in Hep-2 cells; details: 160 μM, 32 h pi
# Protocol: as §1, with “Viral RNA became detectable in the virus control group during the first 4 h pi, followed by significant increases at subsequent time points.” left out
# Figure 5 Effect of W13 on CVB3 replication in Hep-2 cells. […] (a) Progeny virus yields were determined. (b) Viral RNA levels were measured by analysis of total RNA. […] (c) CVB3 protein levels were determined by indirect immunofluorescence, using the mouse anti-coxsackie virus B3 monoclonal antibody, MAB948, and an alexa-fluor-488-conjugated affiniPure goat anti-mouse IgG (H + L), after incubation with W13 for 24 h. […]
# CVB3 or ADV7 suspensions, serially diluted 10-fold with DMEM containing 2% FBS (DMEM maintenance medium, MM), were inoculated to Hep-2 or HeLa cells in 96-well plates. […] After 2 days, infected cells were monitored for CPEs and virus titers were calculated using the Reed–Muench method.
# CVB3 protein = CVB3 protein by indirect immunofluorescence; details: 160 μM, Hep-2 cells
# Protocol: Figure 5 Effect of W13 on CVB3 replication in Hep-2 cells. Hep-2 cells infected with 100 TCID50 CVB3 were incubated in the absence or presence of 160 µM W13 and harvested at the indicated times post-infection. (a) Progeny virus yields were determined. (b) Viral RNA levels were measured by analysis of total RNA. GAPDH was amplified and the resulting data was used for normalization. Values represent the means ± SDs of three independent experiments. * p < 0.05; ** p < 0.01, compared with the virus control group. (c) CVB3 protein levels were determined by indirect immunofluorescence, using the mouse anti-coxsackie virus B3 monoclonal antibody, MAB948, and an alexa-fluor-488-conjugated affiniPure goat anti-mouse IgG (H + L), after incubation with W13 for 24 h. Nuclei were stained with DAPI and green foci indicate the presence of CVB3 protein.
# The influence of W13 on CVB3 replication was also determined at the translational level. […] Then, intracellular viral protein was detected by indirect immunofluorescence analysis after incubation for 8, 24, and 36 h.
# Hep-2 cells (1 × 10^5) were seeded in 24-well plates and incubated overnight. […] After the plates had been washed three times with 0.1% Tween-20 in PBS, they were incubated with the appropriate Alexa-Fluor-488-labeled secondary antibody (Invitrogen) and fluorescence evaluated using an OLYMPUS IX73 microscope (Tokyo, Japan).
smiles,measurement,setting,value
Cc1ccc(OC(=O)C(C)(C)C)c(-c2ccccn2)c1 [W13],reduction of viral RNA copy numbers,CVB3 RNA,approximately 500 fold
same,reduction in viral replication (progeny virus titer),CVB3,~3.0 log
same,viral protein synthesis (immunofluorescence foci),CVB3 protein,suppressed
